What was measured:
[1] = target: Mitogen-activated protein kinase 8 (Homo sapiens) (UniProt P45983); assay: Inhibition of recombinant human full length His-tagged JNK1 expressed in baculovirus expression system at 500 nM by Z-LYTE assay relative to control
[2] = target: Serine/threonine-protein kinase pim-1 (Homo sapiens) (UniProt P11309); assay: Inhibition of recombinant full length human His-tagged PIM1 expressed in baculovirus expression system at 500 nM by Z-LYTE assay relative to control
[3] = target: Platelet-derived growth factor receptor beta (Homo sapiens) (UniProt P09619); assay: Inhibition of recombinant human His-tagged PDGFRbeta cytoplasmic domain expressed in baculovirus expression system at 500 nM by Z-LYTE assay relative to control
[4] = target: Protein kinase C alpha type (Homo sapiens) (UniProt P17252); assay: Inhibition of recombinant human full length untagged PKCalpha expressed in baculovirus expression system at 500 nM by Z-LYTE assay relative to control
[5] = target: Phosphatidylinositol 4,5-bisphosphate 3-kinase catalytic subunit gamma isoform (Homo sapiens) (UniProt P48736); assay: Inhibition of recombinant full length human His-tagged PI3K p110ggamma at 500 nM by Z-LYTE assay relative to control
[6] = target: T1, Mitogen-activated protein kinase 12 (Homo sapiens) (UniProt P53778); assay: Inhibition of recombinant human full length His-tagged p38-gamma expressed in baculovirus expression system at 500 nM by Z-LYTE assay relative to control
T1 sequence (whole entry): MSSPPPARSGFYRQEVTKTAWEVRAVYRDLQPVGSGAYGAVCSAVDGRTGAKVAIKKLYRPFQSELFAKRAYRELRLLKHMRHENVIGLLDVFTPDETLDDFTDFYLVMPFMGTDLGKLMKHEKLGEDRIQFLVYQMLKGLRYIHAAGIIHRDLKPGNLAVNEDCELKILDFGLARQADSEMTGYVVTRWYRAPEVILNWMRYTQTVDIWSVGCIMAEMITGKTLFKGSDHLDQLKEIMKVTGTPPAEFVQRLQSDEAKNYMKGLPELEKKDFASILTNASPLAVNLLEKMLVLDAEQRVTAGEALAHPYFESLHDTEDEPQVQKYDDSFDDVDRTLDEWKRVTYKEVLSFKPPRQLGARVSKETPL

[7] = target: Mast/stem cell growth factor receptor Kit (Homo sapiens) (UniProt P10721); assay: Inhibition of recombinant human His-tagged KIT cytoplasmic domain (544 to 976 residues) expressed in baculovirus expression system at 500 nM by Z-LYTE assay relative to control
[8] = target: PI3-kinase p110-delta/p85-alpha (Homo sapiens) (UniProt P27986+O00329); assay: Inhibition of PI3K p110delta/p85alpha (unknown origin) at 500 nM by Z-LYTE assay relative to control; format: protein-complex assay
[9] = target: Tyrosine-protein kinase Lck (Homo sapiens) (UniProt P06239); assay: Inhibition of recombinant full-length human His-tagged LCK expressed in baculovirus expression system at 500 nM by Z-LYTE assay relative to control
[10] = target: Mitogen-activated protein kinase 14 (Homo sapiens) (UniProt Q16539); assay: Inhibition of recombinant human full length His-tagged p38-alpha expressed in baculovirus expression system at 500 nM by Z-LYTE assay relative to control
[11] = target: Glycogen synthase kinase-3 beta (Homo sapiens) (UniProt P49841); assay: Inhibition of recombinant full-length human His-tagged GSK3beta expressed in baculovirus expression system at 500 nM by Z-LYTE assay relative to control
[12] = target: Proto-oncogene tyrosine-protein kinase ROS (Homo sapiens) (UniProt P08922); assay: Inhibition of recombinant human GST-tagged ROS1 cytoplasmic domain (1883 to 2347 residues) expressed in baculovirus expression system at 500 nM by Z-LYTE assay relative to control
[13] = target: Platelet-derived growth factor receptor alpha (Homo sapiens) (UniProt P16234); assay: Inhibition of recombinant human GST-tagged PDGFRalpha cytoplasmic domain (550 to 1089 residues) expressed in baculovirus expression system at 500 nM by Z-LYTE assay relative to control
PBMC = assay: Inhibition of IL-17 secretion in anti-human CD3 antibody/anti-human CD28 antibody/IL23-stimulated human PBMC after 48 hrs by ELISA; format: functional, cell-based
[14] = target: T2, Mitogen-activated protein kinase 13 (Homo sapiens) (UniProt O15264); assay: Inhibition of recombinant human full length His-tagged p38-delta expressed in baculovirus expression system at 500 nM by Z-LYTE assay relative to control
T2 sequence (whole entry): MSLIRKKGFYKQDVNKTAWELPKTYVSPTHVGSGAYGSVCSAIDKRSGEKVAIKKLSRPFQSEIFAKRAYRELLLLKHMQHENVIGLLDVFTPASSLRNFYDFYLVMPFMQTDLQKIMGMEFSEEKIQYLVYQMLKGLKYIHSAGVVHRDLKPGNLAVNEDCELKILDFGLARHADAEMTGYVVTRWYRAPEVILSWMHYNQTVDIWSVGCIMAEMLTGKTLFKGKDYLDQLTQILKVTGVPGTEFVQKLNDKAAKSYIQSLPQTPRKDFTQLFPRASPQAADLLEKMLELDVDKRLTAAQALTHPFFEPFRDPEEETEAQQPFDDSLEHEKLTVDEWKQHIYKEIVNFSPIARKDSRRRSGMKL

[15] = target: Hepatocyte growth factor receptor (Homo sapiens) (UniProt P08581); assay: Inhibition of recombinant truncated human His-tagged MET expressed in mammalian expression system at 500 nM by Z-LYTE assay relative to control
[16] = target: Tyrosine-protein kinase JAK1 (Homo sapiens) (UniProt P23458); assay: Inhibition of recombinant human GST-tagged JAK1 cytoplasmic domain expressed in baculovirus expression system at 500 nM by Z-LYTE assay relative to control
[17] = target: Rho-associated protein kinase 2 (Homo sapiens) (UniProt O75116); assay: Inhibition of recombinant human N-terminal GST-tagged ROCK2 cytoplasmic domain (1 to 552 residues) expressed in baculovirus expression system at 500 nM by Z-LYTE assay relative to control
[18] = target: Serine/threonine-protein kinase mTOR (Homo sapiens) (UniProt P42345); assay: Inhibition of recombinant human GST-tagged mTOR cytoplasmic domain (1360 to 2549 residues) expressed in baculovirus expression system at 500 nM by Z-LYTE assay relative to control
[19] = target: Serine/threonine-protein kinase pim-2 (Homo sapiens) (UniProt Q9P1W9); assay: Inhibition of recombinant full length human GST-tagged PIM2 expressed in baculovirus expression system at 500 nM by Z-LYTE assay relative to control
[20] = target: Protein kinase C beta type (Homo sapiens) (UniProt P05771); assay: Inhibition of recombinant full length human GST-tagged PKCbeta-1 expressed in insect cells at 500 nM by Z-LYTE assay relative to control
[21] = target: Epidermal growth factor receptor (Homo sapiens) (UniProt P00533); assay: Inhibition of recombinant human GST-tagged wild-type EGFR cytoplasmic domain (668 to 1210 residues) expressed in baculovirus expression system at 500 nM by Z-LYTE assay relative to control
Sequence of Epidermal growth factor receptor (Homo sapiens) (P00533 whole entry, the tested form may be a part): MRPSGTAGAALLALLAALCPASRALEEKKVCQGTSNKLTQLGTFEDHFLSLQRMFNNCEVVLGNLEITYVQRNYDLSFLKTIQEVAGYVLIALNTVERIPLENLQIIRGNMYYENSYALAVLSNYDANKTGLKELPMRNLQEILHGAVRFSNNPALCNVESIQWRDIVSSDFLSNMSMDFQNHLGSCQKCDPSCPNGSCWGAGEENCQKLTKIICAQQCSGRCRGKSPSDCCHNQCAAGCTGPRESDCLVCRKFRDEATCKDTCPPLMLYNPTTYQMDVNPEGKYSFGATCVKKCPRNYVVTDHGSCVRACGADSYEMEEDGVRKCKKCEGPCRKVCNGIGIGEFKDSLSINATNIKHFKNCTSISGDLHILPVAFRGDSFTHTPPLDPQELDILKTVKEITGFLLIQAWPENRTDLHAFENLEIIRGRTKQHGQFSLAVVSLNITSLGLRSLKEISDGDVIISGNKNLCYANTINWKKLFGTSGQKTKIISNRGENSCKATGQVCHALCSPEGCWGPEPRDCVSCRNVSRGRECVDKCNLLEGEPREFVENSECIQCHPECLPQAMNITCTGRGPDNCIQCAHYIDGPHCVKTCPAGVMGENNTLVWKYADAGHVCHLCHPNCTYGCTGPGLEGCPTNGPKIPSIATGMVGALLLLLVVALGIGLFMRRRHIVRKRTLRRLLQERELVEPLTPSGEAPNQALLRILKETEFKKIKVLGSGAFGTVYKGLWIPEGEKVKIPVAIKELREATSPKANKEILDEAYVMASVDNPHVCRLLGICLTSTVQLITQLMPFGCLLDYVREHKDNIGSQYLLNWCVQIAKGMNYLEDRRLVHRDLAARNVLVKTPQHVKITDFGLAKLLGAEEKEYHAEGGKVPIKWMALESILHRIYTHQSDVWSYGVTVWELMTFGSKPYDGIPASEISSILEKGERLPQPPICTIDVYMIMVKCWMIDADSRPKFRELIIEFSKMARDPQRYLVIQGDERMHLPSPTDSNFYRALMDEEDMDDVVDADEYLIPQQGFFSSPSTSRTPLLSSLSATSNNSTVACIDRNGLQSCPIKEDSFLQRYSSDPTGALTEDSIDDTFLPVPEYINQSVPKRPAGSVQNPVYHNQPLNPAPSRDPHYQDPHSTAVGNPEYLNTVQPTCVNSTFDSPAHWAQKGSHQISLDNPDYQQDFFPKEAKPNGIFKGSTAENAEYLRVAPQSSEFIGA

Sequence of Mitogen-activated protein kinase 14 (Homo sapiens) (Q16539 whole entry): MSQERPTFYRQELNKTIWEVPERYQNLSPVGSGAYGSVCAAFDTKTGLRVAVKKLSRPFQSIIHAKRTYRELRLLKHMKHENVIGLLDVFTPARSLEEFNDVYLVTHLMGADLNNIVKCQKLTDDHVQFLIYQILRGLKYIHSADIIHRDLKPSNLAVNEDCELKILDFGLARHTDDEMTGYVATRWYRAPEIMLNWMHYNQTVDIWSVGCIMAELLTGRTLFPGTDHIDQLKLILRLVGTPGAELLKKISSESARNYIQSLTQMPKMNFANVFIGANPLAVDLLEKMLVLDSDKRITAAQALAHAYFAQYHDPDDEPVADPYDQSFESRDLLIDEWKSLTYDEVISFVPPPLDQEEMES
Sequence of Hepatocyte growth factor receptor (Homo sapiens) (P08581 whole entry, the tested form may be a part): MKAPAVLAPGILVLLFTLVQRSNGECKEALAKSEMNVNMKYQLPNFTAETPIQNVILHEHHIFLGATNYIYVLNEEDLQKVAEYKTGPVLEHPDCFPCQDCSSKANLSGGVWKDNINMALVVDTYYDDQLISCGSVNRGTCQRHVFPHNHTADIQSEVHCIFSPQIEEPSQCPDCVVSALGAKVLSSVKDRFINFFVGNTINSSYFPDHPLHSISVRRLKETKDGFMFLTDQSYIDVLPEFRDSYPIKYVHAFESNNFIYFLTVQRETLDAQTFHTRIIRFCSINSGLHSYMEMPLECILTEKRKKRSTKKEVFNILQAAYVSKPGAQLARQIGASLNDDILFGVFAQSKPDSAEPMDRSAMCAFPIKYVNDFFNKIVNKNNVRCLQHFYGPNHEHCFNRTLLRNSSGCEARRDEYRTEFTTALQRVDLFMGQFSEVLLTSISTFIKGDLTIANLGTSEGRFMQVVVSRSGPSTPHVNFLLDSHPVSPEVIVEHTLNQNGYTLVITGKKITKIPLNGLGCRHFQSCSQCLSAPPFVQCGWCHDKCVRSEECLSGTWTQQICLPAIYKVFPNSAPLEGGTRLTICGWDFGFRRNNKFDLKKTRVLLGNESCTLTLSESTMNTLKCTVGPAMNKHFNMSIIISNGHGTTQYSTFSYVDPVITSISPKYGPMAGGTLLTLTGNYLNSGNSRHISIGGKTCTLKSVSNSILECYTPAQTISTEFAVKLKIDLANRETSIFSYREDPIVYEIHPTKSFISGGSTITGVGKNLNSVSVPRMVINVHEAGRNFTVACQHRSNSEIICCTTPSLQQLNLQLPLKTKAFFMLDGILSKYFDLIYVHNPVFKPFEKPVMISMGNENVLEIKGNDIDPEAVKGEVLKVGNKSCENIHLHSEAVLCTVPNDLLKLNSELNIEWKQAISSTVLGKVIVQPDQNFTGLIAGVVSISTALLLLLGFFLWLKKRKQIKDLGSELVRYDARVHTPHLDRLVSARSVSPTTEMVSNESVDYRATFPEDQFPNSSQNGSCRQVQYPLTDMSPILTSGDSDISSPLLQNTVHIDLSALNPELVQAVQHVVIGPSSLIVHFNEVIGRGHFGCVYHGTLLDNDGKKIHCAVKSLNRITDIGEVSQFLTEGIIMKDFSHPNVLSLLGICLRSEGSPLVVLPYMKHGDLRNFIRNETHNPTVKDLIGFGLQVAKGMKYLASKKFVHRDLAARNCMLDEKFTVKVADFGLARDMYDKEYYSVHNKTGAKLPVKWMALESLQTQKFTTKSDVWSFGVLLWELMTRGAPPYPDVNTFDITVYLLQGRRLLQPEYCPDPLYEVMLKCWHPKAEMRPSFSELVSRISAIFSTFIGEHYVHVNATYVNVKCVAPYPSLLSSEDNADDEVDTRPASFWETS
Sequence of Protein kinase C beta type (Homo sapiens) (P05771 2-671 limits assumed): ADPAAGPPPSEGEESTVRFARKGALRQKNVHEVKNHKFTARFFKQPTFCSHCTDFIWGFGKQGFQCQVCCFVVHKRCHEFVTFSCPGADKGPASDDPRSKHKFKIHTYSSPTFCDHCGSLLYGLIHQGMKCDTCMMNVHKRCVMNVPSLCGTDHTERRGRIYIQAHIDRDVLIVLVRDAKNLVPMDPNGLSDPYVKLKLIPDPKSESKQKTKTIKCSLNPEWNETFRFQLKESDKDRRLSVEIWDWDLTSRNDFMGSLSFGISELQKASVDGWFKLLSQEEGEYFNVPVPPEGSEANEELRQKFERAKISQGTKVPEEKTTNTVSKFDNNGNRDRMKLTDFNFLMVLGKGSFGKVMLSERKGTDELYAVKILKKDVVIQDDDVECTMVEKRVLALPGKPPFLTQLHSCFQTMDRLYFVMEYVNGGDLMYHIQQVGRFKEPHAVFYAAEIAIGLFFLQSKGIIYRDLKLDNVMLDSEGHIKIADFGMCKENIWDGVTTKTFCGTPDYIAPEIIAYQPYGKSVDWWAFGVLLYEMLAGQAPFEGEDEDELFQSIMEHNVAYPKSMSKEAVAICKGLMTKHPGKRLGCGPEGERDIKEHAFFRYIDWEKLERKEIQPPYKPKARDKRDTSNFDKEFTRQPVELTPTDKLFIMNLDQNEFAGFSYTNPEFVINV
Sequence of Glycogen synthase kinase-3 beta (Homo sapiens) (P49841 whole entry, looked up, the tested form may be a part): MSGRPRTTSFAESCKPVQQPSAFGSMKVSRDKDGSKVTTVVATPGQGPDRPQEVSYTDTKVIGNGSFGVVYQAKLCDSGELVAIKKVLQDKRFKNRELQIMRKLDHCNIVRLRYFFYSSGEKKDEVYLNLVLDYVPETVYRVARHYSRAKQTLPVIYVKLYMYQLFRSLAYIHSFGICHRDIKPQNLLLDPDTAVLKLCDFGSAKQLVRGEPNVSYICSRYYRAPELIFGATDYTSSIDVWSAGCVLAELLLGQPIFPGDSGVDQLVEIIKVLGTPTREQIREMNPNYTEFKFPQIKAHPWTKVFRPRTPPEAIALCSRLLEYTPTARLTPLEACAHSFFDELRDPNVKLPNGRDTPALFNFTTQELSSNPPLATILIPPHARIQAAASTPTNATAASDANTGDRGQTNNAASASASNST
Sequence of Serine/threonine-protein kinase pim-1 (Homo sapiens) (P11309 whole entry, looked up, the tested form may be a part): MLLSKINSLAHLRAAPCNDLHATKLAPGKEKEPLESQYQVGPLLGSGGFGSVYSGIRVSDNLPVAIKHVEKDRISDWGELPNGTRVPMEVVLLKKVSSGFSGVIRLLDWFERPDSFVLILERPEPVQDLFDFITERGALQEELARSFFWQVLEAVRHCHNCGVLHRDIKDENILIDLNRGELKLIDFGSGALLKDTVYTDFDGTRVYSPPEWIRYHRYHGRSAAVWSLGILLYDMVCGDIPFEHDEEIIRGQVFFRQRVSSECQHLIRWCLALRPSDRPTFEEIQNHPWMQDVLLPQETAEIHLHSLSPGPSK

inhibition [1] [%]	inhibition [2] [%]	inhibition [3] [%]	inhibition [4] [%]	inhibition [5] [%]	inhibition [6] [%]	inhibition [7] [%]	inhibition [9] [%]	inhibition [10] [%]	inhibition [11] [%]	inhibition [12] [%]	inhibition [13] [%]	inhibition [14] [%]	inhibition [15] [%]	inhibition [16] [%]	inhibition [17] [%]	inhibition [18] [%]	inhibition [19] [%]	inhibition [20] [%]	Compound	IC50 (PBMC) [nM]	also measured
-3	7	7	6	4	12	-1	36	17	10	71	12	0	14	-1	6	12	10	-1	OCc1ccc(-c2cc3c(N[C@H](CO)c4ccccc4)ncnc3[nH]2)cc1	1400	inhibition [8]: 2%
19	11	1	0	-2	0	15	3	8	6	23	0	-2	1	-2	2	7	3	-9	OC[C@@H](Nc1ncnc2sc(-c3ccc(O)cc3)cc12)c1ccccc1	2800	inhibition [21]: 99%; inhibition [8]: 0%
3	9	5	15	5	10	-2	32	8	7	15	18	1	4	3	33	14	5	8	CN(C)CCn1cc(-c2cccc(O)c2)c2c(N)ncnc21	1200	inhibition [21]: 4%
4	1	5	21	1	10	-3	19	3	31	22	8	3	6	3	6	11	8	14	CCC(=O)Nc1ccc(-c2c[nH]c3ncnc(N[C@H](C)c4ccccc4)c23)cc1	2100	inhibition [21]: 98%; inhibition [8]: 13%

— ChEMBL document CHEMBL4152312, “Identification of fused pyrimidines as interleukin 17 secretion inhibitors” (Eur J Med Chem, 2018)
